Like-named read-outs stand apart in the source and are kept apart here.
Assays:
Format in all cases: cell-based
[1] = system: renal carcinoma cells (786-O); test: In vitro potency (CellTiter-Glo, 96 h), 786-O; conditions: Homo sapiens, 786-0, 96 h, CPT free drugs, renal carcinoma cells 786-O, 96 h, CellTiter-Glo
Protocol: (§1) In vitro potency was assessed on multiple cancer cell lines. All cell lines were authenticated by STR profiling at IDEXX Bioresearch and cultured for no more than 2 months after resuscitation. Cells cultured in log-phase growth were seeded for 24 hours in 96-well plates containing […] RPMI 1640 supplemented with 20% FBS. Serial dilutions of antibody-drug conjugates in cell culture media were prepared at 4× working concentrations, and 50 μL of each dilution was added to the 96-well plates. Following addition of test articles, cells were incubated with test articles for 4 days at 37 0° C. After 96 hours, growth inhibition was assessed by CellTiterGlo® (Promega, Madison, WI) and luminescence was measured on a plate reader.
(§2) In Table 7, IC50 values for ADCs are given in ng/mL. Cell viability was determined by CellTiter-Glo staining after 96 h exposure to ADC. ND=Not Determined. Ag2 is an antibody targeting a ubiquitous and readily internalizable antigen. The cancer cell lines tested are renal carcinoma cells (786-0), melanoma cells (A2058), pancreatic cancer cells (BxPC3), non-small-cell lung cancer cells (Calu1), anaplastic large cell lymphoma cells (DEL, DELBVR, Karpas299), Hodgkin's lymphoma cells (L540cy), (Ls174T), breast cancer cells (MDA-MB-231), acute myeloid leukemia cells (MOLM-13), and B-lymphocyte cancer cells (SU-DHL4).
as §1, with “FBS.” for “FBS. Serial dilutions of antibody-drug conjugates in cell culture media were prepared at 4× working concentrations, and 50 μL of each dilution was added to the 96-well plates.”
(§3) Cell viability was determined by CellTiter-Glo staining after 96 h exposure to the compound. ND=Not Determined. The cancer cell lines tested are renal carcinoma cells (786-0), melanoma cells (A2058), pancreatic cancer cells (BxPC3), non-small-cell lung cancer cells (Calu1), anaplastic large cell lymphoma cells (DEL, DELBVR, Karpas299), Hodgkin's lymphoma cells (L540cy), (Ls 174T), breast cancer cells (MDA-MB-231), acute myeloid leukemia cells (MOLM-13), B-lymphocyte cancer cells (SU-DHL4), multiple myeloma cells (MM.1R), (U266), and melanoma cells (SK-MEL-5).
as §1, with “37°” for “37 0°”
(§4) In the following Tables IC50 values for ADCs and CPT free drugs are given in ng/mL and nmol/L concentrations. Cell viability was determined by CellTiter-Glo staining after 96 h exposure to ADC or CPT free drug.
(§5) Cell viability was determined by CellTiter-Glo staining after 96 h exposure to ADC. ND=Not Determined.

[2] = system: breast cancer cells (MDA-MB-231); test: In vitro potency (CellTiter-Glo, 96 h), MDA-MB-231; conditions: Homo sapiens, MDA-MB-231, 96 h, CPT free drugs, breast cancer cells MDA-MB-231, 96 h, CellTiter-Glo
Protocol: as §1, §2
as §1, with “FBS.” for “FBS. Serial dilutions of antibody-drug conjugates in cell culture media were prepared at 4× working concentrations, and 50 μL of each dilution was added to the 96-well plates.”
as §3
as §1, with “37°” for “37 0°”
as §4, §5

[3] = system: Hodgkin's lymphoma cells (L540cy); test: In vitro potency (CellTiter-Glo, 96 h), L540cy
Protocol: as §1, §2
as §1, with “FBS.” for “FBS. Serial dilutions of antibody-drug conjugates in cell culture media were prepared at 4× working concentrations, and 50 μL of each dilution was added to the 96-well plates.”
as §3
as §1, with “37°” for “37 0°”
as §4, §5

Ls174T cells = test: In vitro potency (CellTiter-Glo, 96 h), Ls174T; conditions: Homo sapiens, CPT free drugs, Ls174T cells, 96 h, CellTiter-Glo
Protocol: as §1, §2
as §1, with “FBS.” for “FBS. Serial dilutions of antibody-drug conjugates in cell culture media were prepared at 4× working concentrations, and 50 μL of each dilution was added to the 96-well plates.”
as §3
as §1, with “37°” for “37 0°”
as §4, §5

[4] = system: B-lymphocyte cancer cells (SU-DHL4); test: In vitro potency (CellTiter-Glo, 96 h), SU-DHL-4; conditions: Homo sapiens, SU-DHL-4, 96 h, CPT free drugs, B-lymphocyte cancer cells SU-DHL4, 96 h, CellTiter-Glo
Protocol: as §1, §2
as §1, with “FBS.” for “FBS. Serial dilutions of antibody-drug conjugates in cell culture media were prepared at 4× working concentrations, and 50 μL of each dilution was added to the 96-well plates.”
as §3
as §1, with “37°” for “37 0°”
as §4, §5

[5] = system: anaplastic large cell lymphoma cells (DELBVR); test: In vitro potency (CellTiter-Glo, 96 h), DELBVR
Protocol: as §1, §2
as §1, with “FBS.” for “FBS. Serial dilutions of antibody-drug conjugates in cell culture media were prepared at 4× working concentrations, and 50 μL of each dilution was added to the 96-well plates.”
as §3
as §1, with “37°” for “37 0°”
as §4, §5

[6] = system: pancreatic cancer cells (BxPC3); test: In vitro potency (CellTiter-Glo, 96 h), BxPC3; conditions: Homo sapiens, BXPC-3, 96 h, CPT free drugs, pancreatic cancer cells BxPC3, 96 h, CellTiter-Glo
Protocol: as §1, §2
as §1, with “FBS.” for “FBS. Serial dilutions of antibody-drug conjugates in cell culture media were prepared at 4× working concentrations, and 50 μL of each dilution was added to the 96-well plates.”
as §3
as §1, with “37°” for “37 0°”
as §4, §5

[7] = system: anaplastic large cell lymphoma cells (DEL); test: In vitro potency (CellTiter-Glo, 96 h), DEL
Protocol: as §1, §2
as §1, with “FBS.” for “FBS. Serial dilutions of antibody-drug conjugates in cell culture media were prepared at 4× working concentrations, and 50 μL of each dilution was added to the 96-well plates.”
as §3
as §1, with “37°” for “37 0°”
as §4, §5

[8] = system: acute myeloid leukemia cells (MOLM-13); test: In vitro potency (CellTiter-Glo, 96 h), MOLM-13; conditions: Homo sapiens, MOLM-13, 96 h, CPT free drugs, acute myeloid leukemia cells MOLM-13, 96 h, CellTiter-Glo
Protocol: as §1, §2
as §1, with “FBS.” for “FBS. Serial dilutions of antibody-drug conjugates in cell culture media were prepared at 4× working concentrations, and 50 μL of each dilution was added to the 96-well plates.”
as §3
as §1, with “37°” for “37 0°”
as §4, §5

[9] = system: anaplastic large cell lymphoma cells (Karpas299); test: In vitro potency (CellTiter-Glo, 96 h), Karpas299; conditions: Homo sapiens, KARPAS-299, 96 h, CPT free drugs, anaplastic large cell lymphoma cells Karpas299, 96 h, CellTiter-Glo
Protocol: as §1, §2
as §1, with “FBS.” for “FBS. Serial dilutions of antibody-drug conjugates in cell culture media were prepared at 4× working concentrations, and 50 μL of each dilution was added to the 96-well plates.”
as §3
as §1, with “37°” for “37 0°”
as §4, §5

[10] = read-out: MOLM-13 IC50, Table 28
[11] = read-out: MDAMB231 IC50, Table 28
[12] = read-out: L540cy IC50, Table 28, CPT free drugs, Hodgkin's lymphoma cells L540cy, CellTiter-Glo
[13] = LS174T, read-out: Ls174T IC50, Table 28
[14] = read-out: SU-DHL-4 IC50, Table 28
[15] = read-out: DELBVR IC50, Table 28, CPT free drugs, anaplastic large cell lymphoma cells DELBVR, CellTiter-Glo
[16] = read-out: DEL IC50, Table 28, CPT free drugs, anaplastic large cell lymphoma cells DEL, CellTiter-Glo
[17] = read-out: Karpas299 IC50, Table 28
[18] = read-out: MDAMB231 IC50, Table 29
[19] = read-out: L540cy IC50, Table 29, CPT free drugs, Hodgkin's lymphoma cells L540cy, CellTiter-Glo
[20] = LS174T, read-out: Ls174T IC50, Table 29
[21] = read-out: SU-DHL-4 IC50, Table 29
[22] = read-out: DELBVR IC50, Table 29, CPT free drugs, anaplastic large cell lymphoma cells DELBVR, CellTiter-Glo
[23] = read-out: DEL IC50, Table 29, CPT free drugs, anaplastic large cell lymphoma cells DEL, CellTiter-Glo
[24] = read-out: MOLM-13 IC50, Table 29
[25] = read-out: Karpas299 IC50, Table 29

Row | Structure (SMILES) | IC50 [8, 10] [µM] | IC50 ([1]; read-out: 786-O IC50, Table 28) [µM] | IC50 [2, 11] [µM] | IC50 [3, 12] [µM] | IC50 (Ls174T cells; [13]) [µM] | IC50 [4, 14] [µM] | IC50 [5, 15] [µM] | IC50 ([6]; read-out: BxPC3 IC50, Table 28) [µM] | IC50 [9, 17] [µM] | IC50 ([1]; read-out: 786-O IC50, Table 29) [µM] | IC50 [2, 18] [µM] | IC50 [3, 19] [µM] | IC50 (Ls174T cells; [20]) [µM] | IC50 [4, 21] [µM] | IC50 [5, 22] [µM] | IC50 ([6]; read-out: BxPC3 IC50, Table 29) [µM] | IC50 [7, 23] [µM] | IC50 [8, 24] [µM] | IC50 [9, 25] [µM] | further results
1 | CC[C@@]1(O)C(=O)OCc2c1cc1n(c2=O)Cc2c-1nc1cc3c(cc1c2CN)COC3 [Compound 2ak] | 0.129 | – | – | – | – | – | – | – | – | – | – | – | – | – | – | – | – | – | – | IC50 ([1]; Table 28, read-out: 786-O IC50): 0.057 µM; IC50 ([2]; Table 28, read-out: MDAMB231 IC50): 0.147 µM; IC50 ([3]; Table 28, CPT free drugs, Hodgkin's lymphoma cells L540cy, CellTiter-Glo, read-out: L540cy IC50): 0.022 µM; IC50 (Ls174T cells; Table 28, read-out: Ls174T IC50): 0.05 µM; IC50 ([4]; Table 28, read-out: SU-DHL-4 IC50): 0.011 µM; IC50 ([5]; Table 28, CPT free drugs, anaplastic large cell lymphoma cells DELBVR, CellTiter-Glo, read-out: DELBVR IC50): 0.006 µM; IC50 ([6]; Table 28, read-out: BxPC3 IC50): 0.088 µM; IC50 ([7]; Table 28, CPT free drugs, anaplastic large cell lymphoma cells DEL, CellTiter-Glo, read-out: DEL IC50): 0.006 µM; IC50 ([9]; Table 28, read-out: Karpas299 IC50): 0.04 µM
2 | C=C(C)c1c(C)c(F)cc2nc3c(c(CN)c12)Cn1c-3cc2c(c1=O)COC(=O)[C@]2(O)CC [Compound 2al] | 0.002 | 0.004 | 0.009 | 0.002 | 0.011 | 0.001 | 0.001 | 0.007 | 0.004 | – | – | – | – | – | – | – | – | – | – | IC50 [7, 16]: 0.001 µM
3 | C=Cc1c(C)c(F)cc2nc3c(c(CN)c12)Cn1c-3cc2c(c1=O)COC(=O)[C@]2(O)CC [Compound 2am, (S)-11-(aminomethyl)-4-ethyl-8-fluoro-4-hydroxy-9-methyl-10-vinyl-1,12-dihydro-14H-pyrano[3′,4′:6,7]indolizino[1,2-b]quinoline-3,14(4H)-dione] | 0.002 | 0.002 | 0.005 | 0.001 | 0.005 | 0.001 | 0.0003 | 0.004 | 0.002 | – | – | – | – | – | – | – | – | – | – | IC50 [7, 16]: 0.0003 µM
4 | CC[C@@]1(O)C(=O)OCc2c1cc1n(c2=O)Cc2c-1nc1cc3c(cc1c2CNC[C@H](O)CN1CCCCC1)OCO3 [Compound 7aa] | – | – | – | – | – | – | – | – | – | 0.131 | 0.228 | 0.051 | 0.188 | 0.019 | 0.019 | 0.066 | 0.017 | 0.069 | 0.063 | –
5 | CC[C@@]1(O)C(=O)OCc2c1cc1n(c2=O)Cc2c-1nc1cc3c(cc1c2CNCCCN1CCN(C)CC1)OCO3 [Compound 7h] | – | – | – | – | – | – | – | – | – | 0.044 | 0.067 | 0.023 | 0.04 | 0.021 | 0.006 | 0.043 | 0.005 | 0.093 | 0.057 | –
6 | CC[C@@]1(O)C(=O)OCc2c1cc1n(c2=O)Cc2c-1nc1cc3c(cc1c2CNC[C@H](O)CO)OCO3 [Compound 7n] | – | – | – | – | – | – | – | – | – | 0.066 | 0.096 | 0.023 | 0.039 | 0.021 | 0.006 | 0.047 | 0.005 | 0.137 | 0.057 | –
7 | CC[C@@]1(O)C(=O)OCc2c1cc1n(c2=O)Cc2c-1nc1cc3c(cc1c2CNC1CCN(C)CC1)OCO3 [Compound 7w] | – | – | – | – | – | – | – | – | – | 0.015 | 0.026 | 0.006 | 0.016 | 0.006 | 0.002 | 0.013 | 0.002 | 0.026 | 0.008 | –
8 | CC[C@@]1(O)C(=O)OCc2c1cc1n(c2=O)Cc2c-1nc1cc3c(cc1c2CNC[C@@H](O)CN1CCCCC1)OCO3 [Compound 7z] | – | – | – | – | – | – | – | – | – | 0.123 | 0.306 | 0.048 | 0.079 | 0.039 | 0.016 | 0.127 | 0.017 | 0.143 | 0.15 | –
9 | CC[C@@]1(O)C(=O)OCc2c1cc1n(c2=O)Cc2c-1nc1cc3c(cc1c2CNCCN1CCNCC1)OCO3 [Compound 8b] | – | – | – | – | – | – | – | – | – | 0.102 | 0.26 | 0.056 | 0.111 | 0.017 | 0.013 | 0.051 | 0.008 | 0.091 | 0.062 | –
10 | CC[C@@]1(O)C(=O)OCc2c1cc1n(c2=O)Cc2c-1nc1cc3c(cc1c2CNC(C)=O)OCO3 [Compound 12b] | 0.003 | 0.012 | 0.028 | 0.004 | 0.022 | 0.001 | 0.001 | 0.011 | 0.008 | – | – | – | – | – | – | – | – | – | – | –
